Source: patent US12649980B2, “Three-dimensional surface for protein and small molecule microarrays” (The Johns Hopkins University, priority 2019, dated 2026)

What was measured:
Type in all cases: cell-based, human
A549 cells = test: [3H]-2DG uptake assay in A549 cells; conditions: 10 min incubation with compound, mean ± s.d., n = 3
Method: (§1) To determine which of the 17 rapafucin hits inhibited the transporter activity of GLUT1, an orthogonal glucose uptake assay using 2-deoxy-D-[3H] glucose ([3H]-2DG), a nonhydrolyzable, radioactive glucose analog, was employed. Each hit was separately incubated with A549 cells for 10 min before the amount of [3H]-2DG taken up by the cells was measured using scintillation counting. […] The effect of JW11-D2 on uptake of [3H]-2DG in human red blood cells that exclusively express GLUT1 was then determined. Helgerson and Carruthers, J. Biol. Chem. 1987, 262, 5464-5475. […] To further improve the potency of JW11-D2, a structure-activity relationship (SAR) study was performed by synthesizing 21 new analogs of JW11-D2 using different amino acid building blocks.
The inhibitory activity of compounds on glucose transport was analyzed by measuring the cell uptake of [3H]-2DG as previously described. Ulanovskaya et al., Chem. Biol. 2011, 18, 222-230. Briefly, cells were washed twice and incubated in low-glucose medium for 10 min. Cells were added drugs and incubated for another 10 min before adding [3H]-2DG. After 10 min incubation with [3H]-2DG, cells were washed twice and lysed with 0.2 N NaOH plus 0.2% SDS. The cell lysate was transferred to a new tube containing 1 mL of optiphase supermix. Glucose uptake was quantified with a scintillation counter.

[1] = system: sealed erythrocyte membranes; test: [3H]-2DG uptake in purified sealed erythrocyte membranes; conditions: read-out: IC50 [3H]-2DG uptake into sealed erythrocyte membranes
Method: as §1

MCF-7 cells [2] = test: LC/MS metabolite profiling of MCF-7 cells
Method: To understand the metabolic impact of GLUT inhibition by RgA, the steady-state levels of 272 metabolites was determined using LC/MS, Liu et al, Anal. Chem. 2014, 86, 2175-2184, in MCF-7 cells upon treatment with RgA for 30 min and 6 h, respectively.
MCF-7 Cells were seeded into 6-well plate at a density of 5×10^5 cells per well, allowed to recover overnight and subsequently treated with RgA or vehicle control for 30 min and 6 h, respectively. Metabolites were extracted and analyzed as previously described. Liu et al., Anal. Chem. 2014, 86, 2175-2184.

AMPK and mTOR activity = test: Western blot of AMPK and mTOR (S6K) activity in MCF-7 cells; conditions: MCF-7, time- and dose-dependent
Excerpt: The increase in AMP/ATP ratio, in turn, is expected to activate AMPK, leading to the inhibition of the mTOR signaling pathway. Liu et al., Mol. Cancer Ther. 2012, 11, 1672-1682; Head et al., ACS Chem. Biol. 2017, 12, 174-182. The effect of RgA on AMPK and mTOR activity in MCF-7 cells was therefore determined.
(§2) For western blot analysis, cells were harvested and lysed by RIPA buffer plus protease inhibitor. Cell lysates or samples from pull-down experiment were subjected to SDS/PAGE and then transferred to a nitrocellulose membrane. Membranes were first blocked in 5% (wt/vol) BSA in Tris-buffered saline plus 0.1% Tween 20 (TBST) at room temperature for 30 min and incubated with primary antibodies at 4° C. for overnight. Membranes were then washed three times with TBST and incubated with secondary antibodies at room temperature for another 1 h. Membranes were washed with TBST three times again and incubated with ECL substrate for 1 min at room temperature. Pictures were captured using a GeneSys Image Station.

MCF-7 cells [3] = test: cell cycle analysis of MCF-7 cells; conditions: MCF-7, 5 μM, 24 h
Method: (§3) The effects of RgA on cell growth, survival, and cell death was then determined. […] Treatment with 5 μM of RgA caused an increase in G1 phase by approximately 23% in comparison to control and approximately 7% and 17% decreases in cells in S and G2/M phases, respectively. The induction in G1 phase cell cycle arrest by RgA is dose-dependent (FIG. 5A, FIG. 16). […] Jones and Thompson, Genes Dev. 2009, 23, 537-548. […] The IC50 values of RgA against several human cancer cell lines also was determined using the alamar blue cell proliferation assay.
MCF-7 cells were seeded at 5×10^5 cells/15 cm dish, allowed to recover overnight and subsequently treated with drugs or vehicle control for 24 h. Media was then collected and set aside. Cells were washed with PBS, trypsinized, combined with set aside media, pelleted at 500×g and then washed with 10 mL PBS followed by another 500×g spin. The pellet was resuspended in 0.5 mL PBS and added dropwise using a Pasteur pipette to 2 mL 75% ethanol in a 5 mL polystyrene tube being slowly agitated by a vortex. The cells were stored at 4° C. until staining. To do so, cells were pelleted at 500×g, resuspended in 5 mL PBS, rested for 60 seconds, pelleted again and washed by 5 mL PBS. The cell pellet was then resuspended in 0.5 mL staining solution (0.1% Triton-X-100, 0.2 mg/mL DNase free RNase A, and 0.02 mg/mL propidium iodide). Cells were allowed to stain for 30 min prior for analysis. Propidium iodide incorporation was measured using a FACSCalibur. The percentage of cells in each cell cycle stage was determined with FlowJo (v7.5.5) using a Watson analysis.

p53 and p21 = test: Western blot of p53 and p21 in MCF-7 cells; conditions: MCF-7, 24-h treatment, dose-dependent
Method: as §3, §2

[4] = MCF-7, 30 min and 6 h treatment

IC50 (A549 cells): 11.6 nM
IC50 [1]: 49.5 nM
Structure (SMILES): CCC(C)C1C(=O)NCC(=O)N(C)CCC=CC(=O)OCC(C)(C)C(=O)C(=O)N2CCCCC2C(=O)OC(CCc2ccc(OC)c(OC)c2)c2cccc(c2)NC(=O)CCC(=O)N(C)C(CC(C)C)C(=O)NC(Cc2ccccc2)C(=O)N1C (centres unmarked) [JW11-D2, Rapaglutin A]
cellular ATP level and AMP/ATP ratio (MCF-7 cells [2]; MCF-7): increase in the AMP/ATP ratio
TCA cycle and redox status (MCF-7 cells [2]; [4]): not significantly affected
upper glycolytic and pentose phosphate pathway intermediates (G6P, F1,6-BP, DHAP, 6PGA, R5P, E4P) (MCF-7 cells [2]; [4]): significant decreases
AMPK activity (AMPK and mTOR activity): activated AMPK
mTOR activity (AMPK and mTOR activity): inhibited mTOR activity
decrease in cells in G2/M phase (MCF-7 cells [3]): ~17%
decrease in cells in S phase (MCF-7 cells [3]): approximately 7%
increase in G1 phase in comparison to control (MCF-7 cells [3]): approximately 23%
p53 and p21 activation (p53 and p21): activation of both p53 and p21
